Measured values published in US20030232087A1, “Bioactive agent release coating with aromatic poly(meth)acrylates” (priority 2002, published 2003).

Tests used:
[1] = Bioactive Agent Release Assay, β-estradiol from coated stents; assay type: physicochemical; conditions: pEVA/pBMA 14/86% (w/w), coated at 0, 20, 30 or 40% relative humidity at 22° C.; PBS, 37° C.; FIG. 3
Experimental: A polymer coating solution containing poly(ethylene-co-vinylacetate) with a vinyl acetate concentration of 33% (w/w) and poly(n-butyl methacrylate) was prepared in 5 tetrahydrofuran at a polymer ratio of 14/86% (w/w), respectively. β-estradiol was added to the polymer coating solution after dissolution of the polymer in order to provide a coating composition of Applicant's above-captioned copending application in the form a one part system The bioactive agent/polymer ratio of the β-estradiol containing polymer solution was 30/70% (w/w) at a concentration of 10 mg/ml.
Eighteen-millimeter long, electropolished stainless steel stents with a 2 mm outer diameter were fabricated (Laserage Technology Corporation, Waukegan Ill.). […]
A suitable Bioactive Agent Release Assay, as described herein, can be used to determine the extent and rate of bioactive agent release under physiological conditions. In general it is desirable that less that 50% of the total quantity of the bioactive agent be released in the first 24 hours. It is frequently desirable for quantities of bioactive agent to be released for a duration of at least 30 days.
Except as otherwise provided herein, each coated stent was placed in an amber vial with 1.6 mls of PBS. […] The concentration of β-estradiol in each PBS sample was determined using UV spectroscopy.

[2] = Bioactive Agent Release Assay, dextran-TRITC from coated discs with polymer topcoat; assay type: physicochemical; conditions: pEVA (33% vinyl acetate)/pBMA topcoat coated at 48% relative humidity compared with 10% relative humidity; PBS, 37° C.; FIG. 2
Experimental: Two solutions were prepared in order to provide a coating composition of Applicant's copending application in the form of a two part system. The first solution was an aqueous solution containing the bioactive agent, dextran-TRITC, at a concentration of 15 mg/ml. The second solution contained poly(ethylene-co-vinylacetate) with a vinyl acetate concentration of 33% (w/w) and poly(n-butyl methacrylate), with approximate weight average molecular weight of 337 kilodaltons. The poly(n-butyl methacrylate) and poly(ethylene-co-vinylacetate) were purified by extraction with organic solvents to remove impurities, e.g., monomer residues. The polymers of the second solution were dissolved in tetrahydrofuran at a concentration of 10 mg/ml. […]
A suitable Bioactive Agent Release Assay, as describe herein, can be used to determine the extent and rate of bioactive agent release under physiological conditions. In general it is desirable that less than 50% of the total quantity of the bioactive agent be released in the first 24 hours. It is frequently desirable for quantities of bioactive agent to be released for a duration of at least 30 days.
Except as otherwise provided herein, each coated disc was placed in an amber vial with 4 mls of PBS. […] The concentration of bioactive agent in each PBS sample was determined using UV spectroscopy. […]

Compound | β-estradiol rate of release from coating [1] | release rate of bioactive agent from composite coating [2]
C[C@]12CC[C@@H]3c4ccc(O)cc4CC[C@H]3[C@@H]1CC[C@@H]2O [β-estradiol] | different humidity level conditions can be used to control the β-estradiol rate of release | –
tetramethylrhodamine isothiocyanate-Dextran [dextran-TRITC] | – | faster rate
